Assay [1] deals with T1, NS3 (Hepatitis C virus, UniProt A3EZJ3). Briefly: Ability to inhibit the hydrolysis of chromogenic 4-phenylazophenyl ester from the peptide fragment Ac- DTEDVVP(Nva)-O-4-PAP in a HCV protease continuous assay. Also noted: species or system Hepacivirus hominis.
A further assay concerns the target T2, Neutrophil elastase (Homo sapiens, UniProt P08246).
T2 sequence (P08246 whole entry): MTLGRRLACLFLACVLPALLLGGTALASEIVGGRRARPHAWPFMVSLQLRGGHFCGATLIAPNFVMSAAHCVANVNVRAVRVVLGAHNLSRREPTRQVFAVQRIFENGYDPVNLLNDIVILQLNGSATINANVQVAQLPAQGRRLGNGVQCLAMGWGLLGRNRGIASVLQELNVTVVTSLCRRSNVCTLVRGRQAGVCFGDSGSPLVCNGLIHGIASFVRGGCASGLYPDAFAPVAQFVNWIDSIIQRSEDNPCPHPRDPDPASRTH
As to the kind of experiment: Binding constant towards Human neutrophil elastase HNE protease.

Assay [2] addresses T1, NS3. As to the kind of experiment: Ability to inhibit the hydrolysis of chromogenic […] ester from the peptide fragment Ac- DTEDVVP(Nva)-O-4-PAP in a HCV protease continuous assay. Also noted: species or system Hepacivirus hominis.

The text below walks through data of ChEMBL document CHEMBL1140351, “Design and synthesis of depeptidized macrocyclic inhibitors of hepatitis C NS3-4A protease using structure-based drug design” (J Med Chem, 2005).

pKi: −log10 of the molar value.

T1 sequence (A3EZJ3 whole entry, the tested form may be a part): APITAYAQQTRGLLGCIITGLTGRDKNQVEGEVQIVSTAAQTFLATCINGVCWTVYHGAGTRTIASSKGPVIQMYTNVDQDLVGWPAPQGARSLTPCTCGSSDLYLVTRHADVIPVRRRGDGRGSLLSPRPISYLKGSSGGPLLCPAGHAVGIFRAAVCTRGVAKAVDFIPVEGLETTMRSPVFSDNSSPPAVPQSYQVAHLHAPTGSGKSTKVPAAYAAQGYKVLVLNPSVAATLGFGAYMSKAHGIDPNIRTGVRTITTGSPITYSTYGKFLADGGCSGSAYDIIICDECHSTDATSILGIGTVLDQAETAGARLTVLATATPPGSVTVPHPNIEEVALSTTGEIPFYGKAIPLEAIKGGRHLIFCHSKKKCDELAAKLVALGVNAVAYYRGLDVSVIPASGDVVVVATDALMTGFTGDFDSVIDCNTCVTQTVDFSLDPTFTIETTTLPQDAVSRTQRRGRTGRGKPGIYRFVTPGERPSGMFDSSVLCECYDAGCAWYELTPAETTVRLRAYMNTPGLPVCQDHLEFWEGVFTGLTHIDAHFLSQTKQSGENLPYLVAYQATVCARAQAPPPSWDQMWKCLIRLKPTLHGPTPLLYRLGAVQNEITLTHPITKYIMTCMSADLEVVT

For orientation: pKi means the Ki on a negative log10 scale, so that one unit is a factor of ten. Low readings indicate a large Ki, high ones a small Ki. In turn, `CCC[C@H](NC(=O)[C@@H]1Cc2cccc(c2)Oc2ccc(cc2)C[C@H](NC(C)=O)C(=O)N[C@@H](C2CCCCC2)C(=O)N1)C(=O)C(=O)NCC(=O)N[C@H](C(=O)O)c1ccccc1` had a negative logarithm of the Ki (pKi) at NS3 [1] of 6.10.

For `CCC[C@H](NC(=O)[C@@H]1Cc2cccc(c2)Oc2ccc(cc2)CCC(=O)N[C@@H](C2CCCCC2)C(=O)N1)C(=O)C(=O)NCC(=O)N[C@H](C(=O)O)c1ccccc1`, the results for the pKi at NS3 [1] and at Neutrophil elastase were 6.96 and 5.54, respectively.

Turning to `CCC[C@H](NC(=O)[C@@H]1Cc2cccc(c2)Oc2ccc(cc2)CCCCC(=O)N[C@@H](C2CCCCC2)C(=O)N1)C(=O)C(=O)NCC(=O)N[C@H](C(=O)O)c1ccccc1`, the pKi is 6.80 at NS3 [1] and 6.52 on NS3 [2].

`CCC[C@H](NC(=O)[C@@H]1Cc2cccc(c2)Oc2ccc(cc2)C[C@H](NC(=O)OC(C)(C)C)C(=O)N[C@@H](C2CCCCC2)C(=O)N1)C(=O)C(=O)NCC(=O)N[C@H](C(=O)O)c1ccccc1` showed a pKi at NS3 [1] of 5.11.

At NS3 [1], `CCC[C@H](NC(=O)[C@@H]1Cc2cccc(c2)Oc2ccc(cc2)C[C@H](NC(=O)OC(C)(C)C)C(=O)N[C@@H](C2CCCCC2)C(=O)N1)C(=O)C(=O)NCC(=O)O` gave a negative-log Ki (pKi) of 4.92.

Compound `CCC[C@H](NC(=O)[C@@H]1Cc2cccc(c2)Oc2ccc(cc2)CCCC(=O)N[C@@H](C2CCCCC2)C(=O)N1)C(=O)C(=O)NCC(=O)N[C@H](C(=O)O)c1ccccc1` gave a negative-log Ki (pKi) at NS3 [1] of 6.52.
